What was measured:
Assay in all cases: relative viability (nuclei count vs DMSO), 5 days (fraction); higher = more cells survive
Linsitinib + Navitoclax = compound: C[C@]1(O)C[C@@H](c2nc(-c3ccc4ccc(-c5ccccc5)nc4c3)c3c(N)nccn32)C1 [Linsitinib] + CC1(C)CCC(c2ccc(Cl)cc2)=C(CN2CCN(c3ccc(C(=O)NS(=O)(=O)c4ccc(N[C@H](CCN5CCOCC5)CSc5ccccc5)c(S(=O)(=O)C(F)(F)F)c4)cc3)CC2)C1 [Navitoclax] (partner 0.5 µM)
Outline: (§1)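 Lung cancer cell lines, seeded in 1536-well plates, were treated the following day by pin tool with a single drug or with five library-drug doses (not always all listed) in √10 steps on top of a fixed anchor-drug dose. Cells were fixed and nuclei stained in one step after 5 days, and nuclei were counted. Relative viability is the nuclei count for treated wells divided by that for vehicle wells, reported as medians of duplicate plates.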

Linsitinib + Alpelisib = compound: C[C@]1(O)C[C@@H](c2nc(-c3ccc4ccc(-c5ccccc5)nc4c3)c3c(N)nccn32)C1 [Linsitinib] + Cc1nc(NC(=O)N2CCC[C@H]2C(N)=O)sc1-c1ccnc(C(C)(C)C(F)(F)F)c1 [Alpelisib] (partner 2 µM)
Outline: as §1

Linsitinib + AZD7762 = compound: C[C@]1(O)C[C@@H](c2nc(-c3ccc4ccc(-c5ccccc5)nc4c3)c3c(N)nccn32)C1 [Linsitinib] + NC(=O)Nc1cc(-c2cccc(F)c2)sc1C(=O)N[C@H]1CCCNC1 [AZD7762] (partner 0.2 µM)
Outline: as §1

Ispinesib + Navitoclax = compound: Cc1ccc(C(=O)N(CCCN)[C@@H](c2nc3cc(Cl)ccc3c(=O)n2Cc2ccccc2)C(C)C)cc1 [Ispinesib] + CC1(C)CCC(c2ccc(Cl)cc2)=C(CN2CCN(c3ccc(C(=O)NS(=O)(=O)c4ccc(N[C@H](CCN5CCOCC5)CSc5ccccc5)c(S(=O)(=O)C(F)(F)F)c4)cc3)CC2)C1 [Navitoclax] (partner 0.5 µM)
Outline: as §1

Cell Line	relative viability (Linsitinib + Navitoclax; first compound 0.01 µM)	relative viability (Linsitinib + Navitoclax; first compound 0.03162 µM)	relative viability (Linsitinib + Navitoclax; first compound 0.1 µM)	relative viability (Linsitinib + Navitoclax; first compound 0.3162 µM)	relative viability (Linsitinib + Navitoclax; first compound 1 µM)	relative viability (Linsitinib + Alpelisib; first compound 0.01 µM)	relative viability (Linsitinib + Alpelisib; first compound 0.03162 µM)	relative viability (Linsitinib + Alpelisib; first compound 0.1 µM)	relative viability (Linsitinib + Alpelisib; first compound 0.3162 µM)	relative viability (Linsitinib + Alpelisib; first compound 1 µM)	relative viability (Linsitinib + AZD7762; first compound 0.01 µM)	relative viability (Linsitinib + AZD7762; first compound 0.03162 µM)	relative viability (Linsitinib + AZD7762; first compound 0.1 µM)	relative viability (Linsitinib + AZD7762; first compound 1 µM)	relative viability (Ispinesib + Navitoclax; first compound 0.001 µM)	relative viability (Ispinesib + Navitoclax; first compound 0.003162 µM)	relative viability (Ispinesib + Navitoclax; first compound 0.01 µM)	relative viability (Ispinesib + Navitoclax; first compound 0.03162 µM)	relative viability (Ispinesib + Navitoclax; first compound 0.1 µM)	relative viability (Linsitinib + AZD7762; first compound 0.3162 µM)
NCI-H3122	1.02	1.05	1.04	1.02	1.08	0.85	0.763	0.768	0.699	0.758	0.985	0.992	0.968	0.765	1.1	1.06	1.06	1.07	0.199	
PC-3 [JPC-3]	0.842	0.798	0.785	0.731	0.669	1.03	1.05	1.03	1.02	0.924	0.784	0.758	0.846	0.597	0.826	0.875	0.782	0.797	0.784	0.495
PC-14	0.968	1.01	1.03	0.984	0.944	0.799	0.89	0.968	0.792	0.837	0.296	0.307	0.34	0.27	1.13	1.14	1.22	0.43	0.104	0.305
RERF-LC-KJ	0.862	0.813	0.581	0.791	0.558	0.838	0.9	0.832	0.878	0.757	0.254	1.02	0.905	0.71	1.17	0.997	1.01	0.74	0.369	0.419
